The source made the active and inactive calls. The calls are words filed in the database; no cut-off is given here.
Experiments:
[1] = system: Matrix protein 2 (Influenza A virus), P06821 [V27A]; assay: Inhibition of influenza A virus wild type M2 proton channel V27A mutant expressed in Xenopus oocytes at 100 uM by two-electrode voltage clamp analysis; format: cell-based
[2] = system: Matrix protein 2 (Influenza A virus), P06821 [withheld]; assay: Inhibition of influenza A virus wild type M2 proton channel S31N mutant expressed in Xenopus oocytes at 100 uM by two-electrode voltage clamp analysis; format: cell-based

| Compound | inhibition [1] | inhibition [2] |
| --- | --- | --- |
| C1CC23CCCC2(C1)CNC3 (centres undefined) | inactive | inactive |
| C1=CC[C@]23CCCC[C@@]2(C1)CNC3 | inactive | inactive |
| C=C1CC23CNCC2(C1)CC(=C)C3 (centres undefined) | inactive | inactive |
| C=C1CC23CC=CCC2(CNC3)C1 (centres undefined) | inactive | inactive |
| CC1CC23CC(C)CC2(C1)CN(C(=N)N)C3 (centres undefined) | inactive | inactive |
| CC1CC23CNCC2(C1)CC(C)C3 (centres undefined) | inactive | inactive |
| C=C1CC23CCCC2(CNC3)C1 (centres undefined) | inactive | inactive |

— ChEMBL document CHEMBL3351890, “Azapropellanes with anti-influenza a virus activity” (ACS Med Chem Lett, 2014)
